According to patent publication US10975056B2 (GlaxoSmithKline Intellectual Property Development Limited, priority 2016, dated 2021):

Legend:
[1] = system: CpG sites in or near the promoter regions of HBG1 and HBG2 gene loci; test: Bisulfite sequence analysis of HBG1/HBG2 DNA methylation in EPCs; type: cell-based, human; details: EPCs treated for 3 days, average of nine sites
Method: To assay the effect of Compound A on DNA methylation, EPCs treated for 3 days with Compound A were harvested and genomic DNA was bisulfite sequenced. Methylation of nine CpG sites in or near the promoter regions of HBG1 and HBG2 gene loci were selected and analyzed based on their previous characterization as sites of DNMT1 methylation during erythropoiesis (Mabaera et al. Blood: 110 (4). 2007).
Bisulfite Sequence Analysis
Genomic DNA was extracted in duplicate from Day 7 EPCs cultured at 37° C. with 5% CO2 and 5% O2 for 3 days in the presence of compound using a ZYMO gDNA kit (Zymo Research, Irvine, Calif.). The isolated DNA was bisulfite converted using a Zymo EZ DNA Methylation Kit. Primer sets for Bisulfite treated regions within the HBG1 and HBG2 were designed using ABI Methyl Primer Express Software. Analyzed regions included 9 previously described sites of DNMT1-dependent DNA methylation (Mabaera et al. Blood: 110 (4). 2007). DNA was further amplified on the fluidigm and QC'd using the Agilent bio-analyzer. MiSeq was performed using the IIlumina system and the output was Analyzed using ArrayStudio v8 and CLC-GWB v8.1.

[2] = system: sickle cell disease (SCD) model transgenic mice; test: Fetal hemoglobin in sickle cell disease transgenic mouse model, % HbF protein by HPLC; type: in vivo; details: oral, 10 or 50 mg/kg BID daily, measured by HPLC
Excerpt: FIG. 2A depicts the effect of Compound A on fetal hemoglobin in the transgenic mouse model.

[3] = system: erythroid progenitor cells (EPCs); test: Cell growth analysis in day 7 EPCs (Cell Titer-Glo); type: cell-based; details: Homo sapiens, read-out: cell growth inhibition by 50%, average pGI50 (converted), 5 days
Method: Day 7 EPCs were cultured in duplicate plates with serially diluted Compound A for 5 days at 37° C. Wells were then analyzed for either induction of fetal hemoglobin (HbF,HbF ELISA) or cell growth (Cell Titer-Glo). In both cases, signal was normalized to vehicle-control treated cells.
All donors provided written informed consent for use of their samples, and the collection and use of the samples received institutional review board approval. All cryopreserved human bone marrow CD34+ cells used here were obtained from AlICells (Emeryville, Calif.) and were generally from different donors. The CD34+ cells were cultured to generate EPCs at day 7. […]
At the time of compound treatment, frozen day 7 EPCs prepared as described above were thawed, washed once and re-suspended in complete culture media as described above with the exception of an increase of rhEPO to 3 U/mL. Cells were counted and diluted to […] for plating into assay plates. […]
Cell growth assays were performed on cell culture plates after 5 days incubation at 37° C. with 5% CO2. […] The plates were then incubated at room temperature for 10 min prior to reading on ViewLux 1430 (Perkin Elmer) using a luminescence protocol. Average reading of control wells (16 wells in column 6 of each assay plate) containing DMSO only were used as the basal level for normalization. […]

CCc1c(C#N)c(SC(C(N)=O)c2ccccc2)nc(N(C)C)c1C#N (stereo not drawn) [Compound A, 2-{[3,5-dicyano-6-(dimethylamino)-4-ethylpyridin-2-yl]sulfanyl}-2-phenylacetamide]
decrease in methylation of nine CpG sites compared with vehicle treated cells [1]: 65±5% | % HbF protein [2]: dose dependent increases | GI50 [3]: 1260 nM
